Experimental data from patent US6570068B1, “Methods for maize transformation coupled with adventitious regeneration utilizing nodal section explants and mature zygotic embryos” (Mississippi State University, priority 1997, dated 2003).

How the values were obtained:
corn seedlings = experiment: Seedling growth in germination medium with BA; format: in vivo; settings: for seedling height versus seedlings without BA: 2.0 mg/l BA in germination medium
Protocol: (§1) In this experiment, the standard germination medium contained 4.3 g/l MS basal salts, DM-Vitamins (1.0 mg/l thiamine-HCl, 0.5 mg/l pyridoxine-HCl, 0.5 mg/l nicotinic acid, 100 mg/l myo-inositol), 30 g/l sucrose, (pH 5.8), and 2.0 mg/l benzyladenine (BA). The standard shoot initiation medium contained 4.3 g/l MS basal salts, DM-vitamins (1.0 mg/l thiamine-HCl, 0.5 mg/l pyridoxine-HCl, 0.5 mg/l nicotinic acid, 100 mg/l myo-inositol), 30 g/l sucrose, 8.0 g/l Phytagar, 0.25 mg/l 4-CPA (para-chlorophenoxyacetic acid), 10 mg/l glycine, 150 mg/l asparagine, and 2.0 mg/l BA. The standard root initiation medium contained 4.3 g/l MS basal salts, DM-vitamins (1.0 mg/l thiamine-HCl, 0.5 mg/l pyridoxine-HCl, 0.5 mg/l nicotinic acid, 100 mg/l myo-inositol), 30 g/l sucrose, 8.0 g/l Phytagar, and ±0.5 mg/l IBA.
As a result, those explants were easier to excise. Explants spanning the seventh node (nodal ridge),with a top excision of 0.5-1.0 mm above the ridge were excised from 4, 7, 14 or 21 day-old seedlings and placed on the shoot initiation medium for 4 weeks. After 4 weeks, 45% of the explants from 7 day-old seedlings (+BA) produced multiple shoot clumps, whereas only 24% of 7 day-old seedlings (−BA) produced multiple shoot clumps. Approximately 3% of the 4 day-old seedlings (+BA) produced multiple shoots. Most explants from older seedlings (14 or 21 days) produced only one elongated shoot or 1 shoot with multiple branches. Once placed on the standard root initiation medium, most shoots (85%) rooted and the plants produced were acclimatized and placed under greenhouse conditions where normal flowering and fruiting were observed. Only one out of 29 plants produced was abnormal (i.e., a dwarf with twisted leaves). The explants should remain on the shoot initiation medium for 4 weeks. It was discovered that if the explants are left on the shoot initiation medium for 8 weeks, floral structures appeared.

nodal ridge explants = experiment: Multiple shoot clump formation from nodal ridge explants of seedlings germinated with BA; format: cell-based, corn; settings: 2.0 mg/l BA in germination medium, 4 weeks on shoot initiation medium
Protocol: as §1
As a result, those explants were easier to excise. Explants spanning the seventh node (nodal ridge),with a top excision of 0.5-1.0 mm above the ridge were excised from 4, 7, 14 or 21 day-old seedlings and placed on the shoot initiation medium for 4 weeks. After 4 weeks, 45% of the explants from 7 day-old seedlings (+BA) produced multiple shoot clumps, whereas only 24% of 7 day-old seedlings (−BA) produced multiple shoot clumps. Approximately 3% of the 4 day-old seedlings (+BA) produced multiple shoots. […]

c1ccc(CNc2ncnc3nc[nH]c23)cc1 [BA, benzyladenine]
seedling height versus seedlings without BA (corn seedlings; 4 day-old seedlings): taller than those without BA
seedling height versus seedlings without BA (corn seedlings; by 7 days): no appreciable differences in height
roots at the nodal ridge (corn seedlings; seedlings grown with BA): less roots at the nodal ridge
seedlings (explants) that produced multiple shoots (nodal ridge explants; 4 day-old seedlings): Approximately 3%
explants that produced multiple shoot clumps (nodal ridge explants; explants from 7 day-old seedlings): 45%
